# Source: publication PMC6127852 (Journal of Enzyme Inhibition and Medicinal Chemistry, 2018)
# Legend:
# P. aeruginosa ATCC 27853 = assay: Broth microdilution MIC, P. aeruginosa ATCC 27853; format: cell-based; settings: Pseudomonas aeruginosa, ATCC27853; Table S2
# Description: (§1) The compounds were evaluated for their in vitro anti-bacterial activity against Gram-positive bacteria: S. aureus (ATCC 25923), MRSA, methicillin-sensitive S. aureus (MSSA), E. faecalis, vancomycin-resistant E. faecium (VREF), and Gram-negative bacteria: E. coli (ATCC 25925), P. aeruginosa (ATCC 27853), A. baumannii (ATCC 19606) and ESBL-producing K. pneumoniae (ATCC 27736). Standard broth microdilution method as recommended in guidelines of Clinical and Laboratory Standards Institute[61] ^, [65] ^, [66] was applied and the minimum inhibitory concentration (MIC) of compounds was tested. In short, testing was performed in U-bottomed 96-well sterile plastic microdilution trays (Falcon 3077, Becton Dickinson Labware, Franklin Lakes, NJ) in cation (Ca^2+ and Mg^2+) adjusted Mueller–Hinton broth medium (Becton Dickinson and Co., Cockeysville, MD). All testings were performed in triplicate.
# (§2) The in vitro anti-bacterial activity of 5-amidinobenzimidazoles 7a–7e, 8a–8e, and 9a–9e was tested against Gram-positive bacteria including S. aureus (ATCC 25923), Enterococcus faecalis (ATCC 29212), and Gram-negative bacteria including E. coli (ATCC 25925), K. pneumoniae (ATCC 700803), P. aeruginosa (ATCC 27853), and Acinetobacter baumannii (ATCC 19606).
# K. pneumoniae ESBL = assay: Broth microdilution MIC, ESBL K. pneumoniae clinical strain; format: cell-based; settings: Klebsiella pneumoniae
# Description: as §1
# E. coli ESBL = assay: Broth microdilution MIC, ESBL E. coli clinical strain; format: cell-based; settings: Escherichia coli
# E. coli ATCC 25925 = assay: Broth microdilution MIC, E. coli ATCC 25925; format: cell-based; settings: Escherichia coli, ATCC25925; Table S2
# Description: as §1, §2
# P. aeruginosa ESBL = assay: Broth microdilution MIC, ESBL P. aeruginosa clinical strain; format: cell-based; settings: Pseudomonas aeruginosa
# polyC-polyG = assay: UV–Vis titration with polyC-polyG (Scatchard); format: binding; settings: PBS, pH 7; for Hypochromic effect H/%, polyC-polyG: UV–Vis titration, calculated by Scatchard equation; for log Ks, polyC-polyG: binding constant, Scatchard
# Description: (§3) Polynucleotides were purchased as follows: polyG–polyC, polyA–polyU (Sigma-Aldrich, St. Louis, MO), calf thymus ctDNA (Aldrich). Polynucleotides were dissolved in PBS buffer, I = 0.05 mol dm^−3, pH 7.0. The calf thymus ctDNA was additionally sonicated and filtered through a […] filter. The polynucleotide concentration was spectroscopically determined as the concentration of nucleobases.
# (§4) All UV–Vis absorbance measurements were conducted on a Perkin Elmer Lambda 25 spectrophotometer (Perkin Elmer, Waltham, MA). A quartz cell with a 1 cm path length was used for all absorbance studies. Compound stock solutions were 1 mM. The DNA/RNA at increasing ratios was then titrated into the compound buffer solution (1.48 × 10^−5 mol dm^−3) and the corresponding absorption spectra were recorded under the same conditions. All data were graphed and analysed using Origin software version 9.0 (OriginLab Corporation, Northampton, MA). The stability constants (Ks) and [bound compound]/[polynucleotide phosphate] ratios (n) were calculated according to the Scatchard Equation[63] ^, [64]. Values for Ks and n given in Table 1 all have satisfying correlation coefficients (0.99).
# (§5) The binding constants logKs and the density of the binding sites n were calculated using Scatchard plot analysis. In addition, the binding constants Ks for compounds 8b and 8e were calculated only for titration data taken at the r ≥ 0.1, because below that ratio changes in absorption maxima were too small for accurate calculation (ΔA ≤ 0.04) (Table 1). The binding constants Ks and ratios n obtained by processing UV–Vis titration data using the Scatchard equation are summarised in Table 1.
# calf thymus ctDNA = assay: UV–Vis titration with ctDNA (Scatchard); format: binding; settings: PBS, pH 7; for Hypochromic effect H/%, ctDNA: UV–Vis titration, calculated by Scatchard equation; for log Ks, ctDNA: binding constant, Scatchard
# Description: as §3, §4, §5
# [1] = test system: polyA-polyU (RNA, polymer) A/U; assay: UV-Vis titration, Scatchard; settings: PBS, I = 0.05 M (Table 1 says I = 0.015 M), cations not specified, I = 0.015 M (Methods: 0.05 M), pH 7, per base
# E. faecalis ATCC 29212 = assay: Broth microdilution MIC, E. faecalis ATCC 29212; format: cell-based; settings: Enterococcus faecalis, ATCC29212; Table S2
# Description: as §1, §2
# S. aureus ATCC 25923 = assay: Broth microdilution MIC, S. aureus ATCC 25923; format: cell-based; settings: Staphylococcus aureus, ATCC25923; Table S2
# Description: as §1, §2
# polyA-polyU [2] = assay: UV–Vis titration with polyA-polyU (Scatchard); format: binding; settings: PBS, pH 7; for Hypochromic effect H/%, polyA-polyU: UV–Vis titration, calculated by Scatchard equation; for log Ks, polyA-polyU: binding constant, Scatchard
# Description: as §3, §4, §5
# S. aureus MRSA = assay: Broth microdilution MIC, MRSA clinical strain; format: cell-based; settings: Staphylococcus aureus, antibiotic-resistant clinical strain
# Description: as §1
# polyA-polyU [3] = assay: Thermal melting (ΔTm) of polyA-polyU; format: binding; settings: for ΔTm, polyA-polyU, r = 0.1: PBS, pH 7; for ΔTm, polyA-polyU, r = 0.3 / ΔTm, polyA-polyU, r = 0.5: first melting midpoint; for ΔTm, polyA-polyU, r = 0.3, second melting midpoint / ΔTm, polyA-polyU, r = 0.5, second melting midpoint: footnote c: biphasic melting curve
# Description: (§6) T m experiments were conducted with a Perkin Elmer Lambda 25 spectrophotometer in 1 cm quartz cuvettes. The absorbance of the DNA/RNA-compound complex was monitored at 260 nm as a function of temperature. The absorbance of the ligands was subtracted from every curve, and the absorbance scale was normalised. The ΔT m values were calculated by subtracting T m of the free nucleic acid from T m of the complex. Every reported ΔT m value was the average of at least two measurements. The error of ΔT m is ±0.5 °C. All data were graphed and analysed using Origin software version 9.0.
# (§7) Denaturation experiments were carried out at different amounts of the compounds (r = 0.1, 0.3, 0.5, and 0.7 eq; r = [compound]/[polynucleotide]) with ctDNA and polyA-polyU.
# A. baumannii ATCC 19606 = assay: Broth microdilution MIC, A. baumannii ATCC 19606; format: cell-based; settings: Acinetobacter baumannii, ATCC19606; Table S2
# Description: as §1, §2
# S. aureus MSSA = assay: Broth microdilution MIC, MSSA clinical strain; format: cell-based; settings: Staphylococcus aureus
# Description: as §1
# E. faecium VRE = assay: Broth microdilution MIC, VRE clinical strain; format: cell-based; settings: Enterococcus faecium
# Description: as §1
# ctDNA = assay: Thermal melting (ΔTm) of ctDNA; format: binding, calf; settings: PBS, pH 7; for ΔTm, ctDNA, r = 0.3: r = [compound]/[polynucleotide] 0.3, error ±0.5 °C
# Description: as §6, §7
# [4] = test system: bloodstream form T. brucei (strain 221); assay: Anti-trypanosomal screening, resazurin; format: cell-based; settings: Trypanosoma brucei, mean of triplicate ± SEM
# Description: Bloodstream form T. brucei (strain 221) were cultured in modified Iscove’s medium, as outlined[67] and trypanocidal assays were performed using 96-well microtitre plates. […] Resazurin was added after 48 h, the plates incubated for a further 16 h, and then read in a Spectramax plate reader (Molecular Devices Corporation, San Jose, CA). The data were analysed using GraphPad Prism (GraphPad, La Jolla, CA). Each drug concentration was tested in triplicate.
# K. pneumonia ATCC 700803 = assay: Broth microdilution MIC, K. pneumoniae ATCC 700803; format: cell-based; settings: Klebsiella pneumoniae, ATCC700803; Table S2
# Description: as §1, §2
# [5] = test system: polyG-polyC (polyC-polyG) (RNA, polymer) G/C; assay: UV-Vis titration, Scatchard; settings: PBS, I = 0.05 M (Table 1 says I = 0.015 M), cations not specified, I = 0.015 M (Methods: 0.05 M)
# [6] = test system: polyA-polyU (RNA, polymer) A/U; assay: UV melting at 260 nm; settings: PBS, I = 0.05 M, cations not specified, pH 7, r = 0.3 [compound]/[polynucleotide]
Compound,MIC (P. aeruginosa ATCC 27853) [µg/mL],MIC (K. pneumoniae ESBL) [µg/mL],MIC (E. coli ESBL) [µg/mL],MIC (E. coli ATCC 25925) [µg/mL],MIC (P. aeruginosa ESBL) [µg/mL],"log Ks, polyC-polyG (polyC-polyG)","Hypochromic effect H/%, ctDNA (calf thymus ctDNA) [%]","log Ks, ctDNA (calf thymus ctDNA)",log Ks [1],MIC (E. faecalis ATCC 29212) [µg/mL],MIC (S. aureus ATCC 25923) [µg/mL],"Hypochromic effect H/%, polyA-polyU (polyA-polyU [2]) [%]","log Ks, polyA-polyU (polyA-polyU [2])",MIC (S. aureus MRSA) [µg/mL],"ΔTm, polyA-polyU, r = 0.1 (polyA-polyU [3]) [°C]","ΔTm, polyA-polyU, r = 0.3 (polyA-polyU [3]) [°C]",MIC (A. baumannii ATCC 19606) [µg/mL],MIC (S. aureus MSSA) [µg/mL],MIC (E. faecium VRE) [µg/mL],"ΔTm, ctDNA, r = 0.5 (ctDNA) [°C]",also measured
"CC(C)(O/N=C(\C(=O)N[C@@H]1C(=O)N2C(C(=O)[O-])=C(C[n+]3ccccc3)CS[C@H]12)c1csc(N)n1)C(=O)O [Ceftazidime, ceftazidime, reference compound]",4,> 128,8,0.5,32,–,–,–,–,–,–,–,–,–,–,–,–,–,–,–,–
"Cl.Cl.c1ccc(SCn2cc(COc3ccc(-c4nc5cc(C6=NCCN6)ccc5[nH]4)cc3)nn2)cc1 [Compound 9e, 5–(4,5-Dihydro-1H-imidazol-2-yl)-2–(4-((1-(phenylthiomethyl)-1H-1,2,3-triazol-4-yl)methoxy)phenyl)-1H-benz[d]imidazole dihydrochloride]",128,–,64,64,64,4.29,41.1,6.21,5.36,128,32,31.6,5.36,64,1.11,0.47,> 256,64,32,3.47,"Hypochromic effect H/%, polyC-polyG (polyC-polyG): 5.21%; melting point: 162 to 164 °C; ΔTm, polyA-polyU, r = 0.3, second melting midpoint (polyA-polyU [3]): 12.46^c °C; ΔTm, polyA-polyU, r = 0.5 (polyA-polyU [3]): 0.47 °C; ΔTm, polyA-polyU, r = 0.5, second melting midpoint (polyA-polyU [3]): 13.89^c °C; ΔTm, ctDNA, r = 0.7 (ctDNA): 3.60 °C; ΔTm, ctDNA, r = 0.3 (ctDNA): 2.87 °C; IC50 [4]: 9.7 ± 0.2 µM; IC90 [4]: 14 ± 0.3 µM; MIC (K. pneumonia ATCC 700803): > 256 µg/mL; log Ks ([5]; pH 7, n fixed, per base): 4.29"
N=C(N)c1ccc2[nH]c(-c3ccc(OCc4cn(-c5ccccc5)nn4)cc3)nc2c1 [Compound 7a],128,8,4,32,128,6.44,7.8,6.76,5.24,64,32,19.3,5.24,16,1.74,1.74,> 256,32,32,4.84,"ΔTm, polyA-polyU, r = 0.5 (polyA-polyU [3]): 2.53 °C; ΔTm, ctDNA, r = 0.7 (ctDNA): 4.69 °C; ΔTm, ctDNA, r = 0.3 (ctDNA): 2.46 °C; IC50 [4]: 8.6 ± 0.5 µM; IC90 [4]: 16.2 ± 0.9 µM; MIC (K. pneumonia ATCC 700803): 128 µg/mL; log Ks ([5]; pH 7, n fixed, per base): 6.44; ΔTm ([6]; error ±0.5, per base): 1.74 °C"
N=C(N)c1ccc2[nH]c(-c3ccc(OCc4cn(Cc5ccccc5)nn4)cc3)nc2c1 [Compound 7d],32,16,16,32,32,6.56,40.4,5.78,5.94,64,32,32.5,5.94,16,2.06,1.14,> 256,32,32,3.86,"ΔTm, ctDNA, r = 0.7 (ctDNA): 3.62 °C; ΔTm, ctDNA, r = 0.3 (ctDNA): 3.12 °C; IC50 [4]: 12.9 ± 0.2 µM; IC90 [4]: 18.2 ± 1 µM; MIC (K. pneumonia ATCC 700803): 64 µg/mL; log Ks ([5]; pH 7, per base): 6.56; ΔTm ([6]; error ±0.5, per base): 1.14 °C"
"Cl.Cl.N=C(N)c1ccc2[nH]c(-c3ccc(OCc4cn(CSc5ccccc5)nn4)cc3)nc2c1 [Compound 7e, 2–(4-((1-((Phenylthio)methyl)-1H-1,2,3-triazol-4-yl)methoxy)phenyl)-1H-benz[d]imidazole-5-carboximidamide dihydrochloride]",64,16,32,32,32,5.89,38.2,5.33,6.20,128,32,31.7,6.20,32,0.39,1.11,> 256,128,64,2.62,"Hypochromic effect H/%, polyC-polyG (polyC-polyG): 5.79%; melting point: 173 to 176 °C; ΔTm, polyA-polyU, r = 0.3, second melting midpoint (polyA-polyU [3]): 12.58^c °C; ΔTm, polyA-polyU, r = 0.5 (polyA-polyU [3]): 1.11 °C; ΔTm, polyA-polyU, r = 0.5, second melting midpoint (polyA-polyU [3]): 15.04^c °C; ΔTm, ctDNA, r = 0.7 (ctDNA): 2.66 °C; ΔTm, ctDNA, r = 0.3 (ctDNA): 2.19 °C; IC50 [4]: 10.2 ± 1.3 µM; IC90 [4]: 15.9 ± 0.4 µM; MIC (K. pneumonia ATCC 700803): 128 µg/mL; log Ks ([5]; pH 7, per base): 5.89; ΔTm ([6]; error ±0.5, biphasic, second midpoint 12.58, per base): 1.11 °C"
